From publication PMC10349806 (Nature Communications, 2023)
Where “and” joins values, the source holds several entries; their conditions need not be identical. Identical values can stand only once.

Assays:
[1] = test system: PfCRT variant E207F; experiment: CQ uptake assay, oocytes expressing E207F; assay type: cell-based, Plasmodium falciparum
Description: (§1) Site-directed mutagenesis of PfCRT^Dd2 was performed as described using the megaprimer method with overlap extension[21],[54]. The primer pairs used are listed in Supplementary Table 6. Please note that a codon-optimized and oocyte-adapted version of PfCRT^Dd2 was used[22] (Supplementary Fig. 16). The resulting DNA fragment was cloned into the SP64T expression vector and verified by sequencing.
(§2) Oocytes were obtained as described previously. Briefly, adult (>2 years old) female X. laevis frogs (NASCO) were anesthetized in a cooled solution of ethyl 3-amino benzoate methanesulfonate (0.1%, w/v), followed by a surgical removal of parts of the ovary. The ovary lobes were carefully dissected and small pieces of oocytes were incubated in Ca^2+-free ND96 buffer (96 mM NaCl, 2 mM KCl, 1 mM MgCl2 buffered with 5 mM HEPES/NaOH, pH 7.5) supplemented with collagenase D (0.1%, w/v; Roche), BSA (0.5%, w/v), and 9 mm Na2HPO4 at 18 °C for 14-16 h while gentle shaking. After incubation, the oocytes were carefully washed several times with ND96 buffer (96 mM NaCl, 2 mM KCl, 1.8 mM CaCl2, 1 mM MgCl2 buffered with 5 mM HEPES/NaOH, pH 7.5) supplemented with 100 mg l^−1 gentamycin). Defolliculated and healthy-looking stage V-VI oocytes were manually selected for RNA microinjection. The RNA was generated as following: The codon-optimized sequences of PfCRT variants were cloned into the pSP64T expression vector. After vector linearization using the restriction endonucleases BamHI or SalI (New England Biolabs), transcription was performed using the in vitro SP6 mMessage mMachine Kit (Ambion)[34]. The obtained RNA was kept at −80 °C and diluted with nuclease-free water to a concentration of 0.6 μg μl^−1. Precision-bore glass capillary tubes (3.5-inch glass capillaries; Drummond Scientific Co.) were pulled on a vertical puller (P-87 Flaming/Brown micropipette puller, Sutter Instrument Co.), graduated, and placed on a microinjector (Nanoject II Auto-Nanoliter Injector, Drummond Scientific Co.). 50 nl of nuclease-free water alone (control oocytes) or 50 nl of 0.6 μg μl^−1 RNA were injected under stereomicroscopic control. Injected oocytes were incubated for 46–72 h at 18 °C with twice-daily buffer changes before usage in experiments.
Drug uptake assays were performed as described previously[21],[22],[24],[34]. […] The direction of radio-labeled drug transport is here from the mostly acidic extracellular solution (pH 4.5 or 6.0, as indicated) into the oocyte cytosol (pH ∼ 7.2), which corresponds to the efflux of drug from the acidic digestive vacuole (pH 5.2) into the parasite cytoplasm (pH 7.2). The topology of PfCRT in the oolemma is such that both the N- and C-terminus face the extracellular milieu[3],[22]. In the parasite, the N- and C-terminus face the lumen of the digestive vacuole. CQ uptake kinetics were performed by incubating oocytes in ND96 buffer adjusted to a pH of 4.5, 5.0, 5.5, or 6.0 and supplemented with 50 nM [^3H]CQ and one of 7 different CQ concentrations (10 µM, 50 µM, 100 µM, 200 µM, 300 µM, 400 µM, 500 µM CQ). The reaction was stopped at the 60 min time point, which is in the linear uptake range[22],[34] (Supplementary Fig. 17). For determination of the amount of drug uptake for each oocyte, the reaction medium was removed and the oocytes were washed three times with 2 ml of ice-cold ND96 buffer. Each oocyte was individually transferred to a scintillation vial containing 5% sodium dodecyl sulfate (200 μl) for lysis. The radioactivity of each sample was measured using a liquid scintillation analyzer Tri-Carb 4910 TR (PerkinElmer). Oocytes that were injected with water instead of RNA were analyzed in parallel, representing the uptake of a drug by diffusion and/or endogenous permeation pathways. The resulting value represents the “background“ level of drug accumulation in oocytes (in-depth discussion in[22]). […]

[2] = target: T1, PfCRT variant H123A (Plasmodium falciparum, UniProt Q9N623, A220S/H123A/I356T/K76T/M74I/N326S/N75E/Q271E/R371I); experiment: CQ uptake assay, oocytes expressing H123A; assay type: cell-based
T1 sequence (Q9N623 1-424 M74I/N75E/K76T/H123A/A220S/Q271E/N326S/I356T/R371I): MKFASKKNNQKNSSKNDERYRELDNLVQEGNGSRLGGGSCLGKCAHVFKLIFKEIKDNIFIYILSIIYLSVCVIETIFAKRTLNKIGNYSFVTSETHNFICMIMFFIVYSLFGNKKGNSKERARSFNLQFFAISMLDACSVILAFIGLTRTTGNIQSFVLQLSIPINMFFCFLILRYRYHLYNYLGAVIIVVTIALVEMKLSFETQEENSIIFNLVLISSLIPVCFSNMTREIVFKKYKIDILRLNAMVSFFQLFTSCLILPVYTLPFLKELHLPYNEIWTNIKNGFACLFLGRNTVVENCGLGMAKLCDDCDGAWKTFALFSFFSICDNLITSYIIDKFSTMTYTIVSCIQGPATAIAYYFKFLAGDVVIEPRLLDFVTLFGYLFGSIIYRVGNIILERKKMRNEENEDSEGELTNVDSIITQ
Description: as §1, §2
Drug uptake assays were performed as described previously[21],[22],[24],[34]. […] The direction of radio-labeled drug transport is here from the mostly acidic extracellular solution (pH 4.5 or 6.0, as indicated) into the oocyte cytosol (pH ∼ 7.2), which corresponds to the efflux of drug from the acidic digestive vacuole (pH 5.2) into the parasite cytoplasm (pH 7.2). The topology of PfCRT in the oolemma is such that both the N- and C-terminus face the extracellular milieu[3],[22]. In the parasite, the N- and C-terminus face the lumen of the digestive vacuole. […] For determination of the amount of drug uptake for each oocyte, the reaction medium was removed and the oocytes were washed three times with 2 ml of ice-cold ND96 buffer. Each oocyte was individually transferred to a scintillation vial containing 5% sodium dodecyl sulfate (200 μl) for lysis. […] Oocytes that were injected with water instead of RNA were analyzed in parallel, representing the uptake of a drug by diffusion and/or endogenous permeation pathways. […] The specific PfCRT-mediated uptake was determined by subtracting the corresponding background value measured in water-injected oocytes from that of PfCRT-expressing oocytes. […]

[3] = E207F, 50 µM CQ, 1 h, mean ± SEM

For `CCN(CC)CCCC(C)Nc1ccnc2cc(Cl)ccc12` (centres unmarked) [CQ, chloroquine], the “Activity at pH 4.5” value [1, 3] was 2.67 ± 0.27 pmol h-1 oocyte-1, the “Activity at pH 6.0” value [1, 3] was 3.27 ± 0.42 pmol h-1 oocyte-1 and the R-value ([1]; E207F, CQ transport at pH 4.5 / pH 6.0) was 0.84 ± 0.09. The “E207F transport activity pH 4.5” value ([1]; pH 4.5, individual replicates, Fig 6b) was 3.33 pmol oocyte-1 h-1 and 3.06 pmol oocyte-1 h-1 and 2.01 pmol oocyte-1 h-1 and 2.27 pmol oocyte-1 h-1, the “E207F transport activity pH 6.0” value ([1]; pH 6.0, individual replicates, Fig 6b) was 2.89 pmol oocyte-1 h-1 and 4.68 pmol oocyte-1 h-1 and 2.46 pmol oocyte-1 h-1 and 3.03 pmol oocyte-1 h-1 and the “E207F R-value” ([1]; ratio of activity pH 4.5 / pH 6.0) was 1.15 and 0.65 and 0.82 and 0.75. The “Activity at pH 6.0” value ([2]; H123A, 50 µM CQ, 1 h, mean ± SEM) was 4.85 ± 0.43 pmol h-1 oocyte-1, the R-value ([2]; H123A, CQ transport at pH 4.5 / pH 6.0) was 0.36 ± 0.09 and the “H123A transport activity pH 4.5” value ([2]; pH 4.5, single replicates, Fig 1d left) was 1.12 pmol oocyte-1 h-1 and 2.16 pmol oocyte-1 h-1 and 1.35 pmol oocyte-1 h-1 and 2.48 pmol oocyte-1 h-1. For the same compound, the “H123A R-value” ([2]; pH 4.5 vs pH 6.0, Fig 1d left) was 0.44 and 0.35 and 0.42 and 0.27 and 0.52 and the “H123A transport activity pH 6.0” value ([2]; pH 6.0, single replicates, Fig 1d left) was 6.18 pmol oocyte-1 h-1 and 3.21 pmol oocyte-1 h-1 and 5.14 pmol oocyte-1 h-1 and 4.96 pmol oocyte-1 h-1 and 4.77 pmol oocyte-1 h-1.
